Results reported in patent US6291247A, “Methods of screening for factors that disrupt neurotrophin conformation and reduce neurotrophin biological activity” (priority 1996, dated 2001).

How the values were obtained:
p75^NTR /TrkA = assay: Receptor crosslinking of 125I-NGF with transition metal ions (receptor selectivity); type: binding
Method: (§1) To explore the ability of other transition metals to influence the biological activities of NGF, a series of cations known to mimic in certain respects the binding of zinc to proteins were tested. […] For this reason these ions were not tested in NGF- dependant growth phenomena. […] As these studies appeared to indicate potentially complex results upon metal ions binding to NGF, a receptor crosslinking system where specific receptor types could be identified was utilized.

PC12 cells [1] = assay: Toxicity to PC12 cells; type: cell-based, rat; conditions: 100 μM
Method: (§2) Effects of divalent ions on NGF mediated survival and toxicity was evaluated using a colorimetric assay for the lysosomal enzyme acid phosphatase to determine cell number (Connolly, D. T., Knight, M. B., Harakas, N. K, Wittwer, A. J. & Feder, J. Determination of the number of endothelial cells in culture using an acid phosphatase assay. Anal. Biochem. 152, 136-140 (1986); Ueda, Y., Walsh, E., Nakanishi H. & Yoshida, K. A. colorometric assay method for the evaluation of neurotrophic activity in vitro. Neurosci. Lett. 165, 203-207 (1994)). […] To evaluate toxicity, the cells were seeded and maintained without NGF in RPMI with 10% heat inactivated donor horse serum and 5% fetal calf serum in the presence of additives. Loss in viable cell number was determined and expressed as a percent of control. NGF rescues PC12 cells from cell death in serum-free medium(Greene, L. A. Nerve growth factor prevents the death and stimulates neuronal differentiation of clonal PC12 pheochromocytoma cells in serum-free medium. J. Cell Biol. 78, 747-755 (1978)). NGF-dependent survival was assessed by harvesting PC12 cells in balanced salt solution followed with washing by 4 cycles of suspension and centrifugation in serum-free RPMI prior to seeding in 96 well plates. After incubation with additives, medium was removed from the wells and cells washed once with 200 μl PBS. Buffer containing 0.1M sodium acetate pH 5.5, 0.1% Triton X-100 and 10 mM p-nitrophenyl phosphate (Sigma 104 phosphatase substrate) was added to each well (100 μl). Plates were incubated at 37° C. for 3 hours. The reaction was stopped by the addition of 10 μl/well of 1N sodium hydroxide and the color development measured at 405 nm using a microplate reader. The relationship between cell number and enzyme activity was linear over the range 1000 to 15,000 cells.
as §1

p75^NTR and TrkA [2] = target: T1, p75^NTR and TrkA (Mus musculus, UniProt P01139); assay: Binding of 125I-NGF to PC12 cells (p75NTR + TrkA); set-up: species or system rat; conditions: for Total Binding to PC12 cells: 100 μM, 125I-NGF, 120 min
T1 construct: these cells express both NGF receptor types; endogenous in cells; host or cells: PC12 rat pheochromocytoma cells
Method: (§3) PC12 cells were grown in RPMI with 10% heat inactivated donor horse serum and 5% fetal calf serum. […] The tubes were incubated for 2 hr at 4° C. and 100 μl aliquots (providing triplicate data points for each sample) were transferred to 400 μl microcentrifuges containing 200 μl of 10% glycerol in HKR. Tubes were centrifuged for 2 minutes at 5,000 rpm, the tip containing the cell pellet cut off and radioactivity bound to the cells was determined.

PC12 cells [3] = assay: NGF-dependent survival of PC12 cells; type: cell-based, rat; conditions: for Survival @ 50 pM NGF / Survival @ 1 nM NGF: rat, pc12 cells, 100 µM; for Antagonism of NGF-dependent survival: high (1 nM) or low (50 pM) NGF
Method: as §2, §1

NGF = target: T2, NGF (Mus musculus, UniProt P01139); assay: NGF protomer crosslinking with BS3 (NGF conformation), metal ions; type: biochemical; conditions: for NGF Protomer Conformation (active/inactive): 100 μM
T2 construct: homodimer
Method: For crosslinking NGF […], 0.4 mM BS^3 was added to the mixture and incubated for 30 minutes at 25° C. […] For CD studies, NGF (50 μg/ml) was dissolved in 50 mM Tris-HCl buffer and spectra recorded using a computer controlled Jasco J-600 spectropolarimeter. Samples were acquired in the absence or presence of Zn^2+ (100 μM) at 22° C. in a 2 mm quartz cell averaged over eight scans. Modification of His residues by DEPC was carried out as previously described, where the molar excess of DEPC added and the extent of reaction was determined by evaluating the loss of binding activity of the modified product.

p75^NTR and TrkA [4] = test system: T3, p75^NTR and TrkA; assay: Binding of 125I-NGF to PC12 cells (p75NTR + TrkA); set-up: species or system rat
T3 construct: these cells express both NGF receptor types; endogenous in cells; host or cells: PC12 rat pheochromocytoma cells
Method: as §3

T2 sequence (P01139 122-239): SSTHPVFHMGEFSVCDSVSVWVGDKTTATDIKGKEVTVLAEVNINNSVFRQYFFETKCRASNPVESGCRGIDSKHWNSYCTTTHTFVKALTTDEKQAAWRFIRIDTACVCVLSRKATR
p75^NTR /TrkA, sequence (P01139 122-239): as above
p75^NTR /TrkA, sequence (P07174 30-425 partner): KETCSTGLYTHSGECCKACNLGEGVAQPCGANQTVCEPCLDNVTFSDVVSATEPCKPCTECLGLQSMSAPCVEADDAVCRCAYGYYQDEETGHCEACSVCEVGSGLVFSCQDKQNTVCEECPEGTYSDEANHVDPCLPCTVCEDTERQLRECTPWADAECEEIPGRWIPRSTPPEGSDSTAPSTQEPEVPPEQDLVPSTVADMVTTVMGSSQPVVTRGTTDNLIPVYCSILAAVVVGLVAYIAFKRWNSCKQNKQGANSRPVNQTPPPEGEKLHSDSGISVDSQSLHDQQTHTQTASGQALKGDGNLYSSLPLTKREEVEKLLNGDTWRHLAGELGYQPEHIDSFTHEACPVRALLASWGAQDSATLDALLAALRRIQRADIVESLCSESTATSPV
p75^NTR /TrkA, sequence (P35739 33-799 partner): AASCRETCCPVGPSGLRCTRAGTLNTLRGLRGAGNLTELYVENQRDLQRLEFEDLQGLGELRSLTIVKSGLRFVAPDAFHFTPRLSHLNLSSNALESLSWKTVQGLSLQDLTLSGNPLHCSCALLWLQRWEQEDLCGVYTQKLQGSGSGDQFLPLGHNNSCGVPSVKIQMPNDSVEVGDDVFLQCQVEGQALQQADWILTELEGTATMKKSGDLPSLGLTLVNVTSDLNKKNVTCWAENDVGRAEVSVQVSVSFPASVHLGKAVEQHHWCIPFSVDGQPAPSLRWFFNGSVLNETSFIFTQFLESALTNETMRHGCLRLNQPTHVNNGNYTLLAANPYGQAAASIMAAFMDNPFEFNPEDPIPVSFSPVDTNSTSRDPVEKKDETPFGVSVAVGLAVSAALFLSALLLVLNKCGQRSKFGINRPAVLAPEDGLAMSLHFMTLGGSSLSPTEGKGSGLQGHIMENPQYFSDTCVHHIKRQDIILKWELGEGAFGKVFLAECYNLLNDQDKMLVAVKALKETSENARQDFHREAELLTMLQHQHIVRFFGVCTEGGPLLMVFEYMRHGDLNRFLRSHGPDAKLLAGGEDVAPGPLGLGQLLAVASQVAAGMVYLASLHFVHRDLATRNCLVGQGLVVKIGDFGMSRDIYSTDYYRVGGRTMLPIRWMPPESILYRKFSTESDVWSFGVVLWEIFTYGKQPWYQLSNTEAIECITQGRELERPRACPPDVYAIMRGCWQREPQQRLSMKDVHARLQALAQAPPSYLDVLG
T1 sequence (P01139 122-239): as the sequence (P01139 122-239) above
T3 sequence (P01139 122-239): as above

Row | Receptor binding activity of NGF modified with DEPC (p75^NTR and TrkA [2]) | SMILES | Blocking of NGF binding to TrkA and p75NTR in receptor crosslinking (p75^NTR /TrkA) | Toxicity (PC12 cell viability) (PC12 cells [1]) | Total Binding to PC12 cells (p75^NTR and TrkA [2]) | Survival @ 50 pM NGF (PC12 cells [3]) | Survival @ 1 nM NGF (PC12 cells [3]) | NGF Protomer Conformation (active/inactive) (NGF) | Prevention of 125I-NGF binding to PC12 cells (p75^NTR and TrkA [4]) | Antagonism of NGF-dependent survival (PC12 cells [3]) | Protomer crosslinking efficiency of NGF modified with DEPC (NGF; no Zn2+)
1 | – | [Mn+2] [Mn^2+] | did not have a significant effect | 82 ± 4 % control | 95 ± 24 % control | 91 ± 5 % control | 59 ± 24 % control | inactive | – | – | –
2 | – | [Cu+2] [Cu^2+] | blocked binding to both receptors | 74 ± 10 % control | -16 ± 7 % control | -2 ± 19 % control | -6 ± 8 % control | active | ability to prevent binding | ability to antagonize the NGF-dependant survival | –
3 | – | [Pd+2] [Pd^2+] | blocked binding to both receptors | 75 ± 6 % control | -5 ± 1 % control | 82 ± 9 % control | 125 ± 48 % control | active | ability to prevent binding | – | –
4 | loss in receptor binding activity | CCOC(=O)OC(=O)OCC [DEPC, diethyl-pyrocarbonate, reference compound] | – | – | – | – | – | – | – | – | reduction in protomer crosslinking efficiency
5 | – | [Pt+2] [Pt^2+] | blocked binding to both receptors | 93 ± 6 % control | 68 ± 11 % control | 74 ± 21 % control | 92 ± 35 % control | active | – | ability to antagonize the NGF-dependant survival | –
